Common to all, as to assay type: cell-based
Experiment [1] concerns the target T1, CX3CR1 (Homo sapiens, UniProt P49238).
T1 sequence (P49238 1-355): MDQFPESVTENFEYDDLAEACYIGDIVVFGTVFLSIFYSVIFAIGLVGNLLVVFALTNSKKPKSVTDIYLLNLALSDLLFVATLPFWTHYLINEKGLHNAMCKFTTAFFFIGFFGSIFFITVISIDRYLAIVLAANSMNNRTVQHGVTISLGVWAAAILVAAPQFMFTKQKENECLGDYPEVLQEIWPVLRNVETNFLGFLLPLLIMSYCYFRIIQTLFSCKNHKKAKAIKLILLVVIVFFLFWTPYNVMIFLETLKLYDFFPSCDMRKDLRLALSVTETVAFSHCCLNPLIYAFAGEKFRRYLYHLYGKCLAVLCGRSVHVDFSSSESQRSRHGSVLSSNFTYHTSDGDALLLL
Description: Inhibition of FKN-induced ERK phosphorylation in MDA-436 breast cancer cells over-expressing CX3CR1 (Western blot). Also noted: expressed in transfected cells; host or cells: MDA-MB-436 human breast cancer cells. The settings on record: for inhibition of ERK phosphorylation induced by FKN: compound at 10 μM, incubated 30 minutes, MDA-436 cells over-expressing CX3CR1, 50 nM FKN for 5 minutes. As for the experimental part: Cells were serum starved for 4 hours and then exposed to 50 nM recombinant human FKN (R&D systems, Minneapolis, Minn.) for indicated time points.
(§1) Cell lysates were obtained and SDS-polyacrylamide gel electrophoresis and western blot analysis were performed as previously described (Shulby et al., 2004, Cancer Res. 64:4393-98), with few modifications. Membranes were probed with an antibody against CX3CR1 (0.5 μg/ml, Torrey Pines Biolabs, East Orange, N.J.) and actin (Sigma, St. Louis, Mo.) using 5% milk as a blocking reagent. Membranes were also probed with antibodies targeting phospho-p44/42 MAPK (Thr202/Tyr204, Cell Signaling) and total p44/42 MAPK (Cell Signaling). All primary antibody incubations were performed overnight at 4° C. Primary antibody binding was detected using horseradish peroxidase-conjugated anti-rabbit secondary antibody (Pierce, Rockford, Ill.). Chemiluminescent signals were obtained using SuperSignal West Femto reagents (Pierce) and detected with the Fluorochem 8900 imaging system and relative software (Alpha Innotech, San Leandro, Calif.).
Compound 1 was then evaluated for its ability to inhibit the activation of downstream intracellular pathways by CX3CR1 upon stimulation with soluble FKN. In these experiments, MDA-MB 436 human breast cancer cells, engineered to over-express CX3CR1, were treated with 50 nM FKN for 5 minutes after being incubated with compound 1 for 30 minutes.

In experiment [2] the target is T1, CX3CR1. Description: Calcium mobilization (Ca2+) assay, agonist mode, HEK293T cells stably expressing human CX3CR1. Also noted: Expression vector containing full-length human CX3CR1 cDNA; host or cells: HEK293T. The settings on record: for stimulation of calcium flux (agonist activity): HEK293T cells expressing human CX3CR1. As for the experimental part: (§2) Cells: Mammalian HEK293T cells stably expressing human CX3CR1 (Multispan, Hayward, Calif.)—Host cell: HEK293T; Transfection: Expression vector containing full-length human CX3CR1 cDNA (GenBank Accession Number NM_001337) with FLAG tag sequence at N-terminus; Propagation Medium: DMEM, 10% FBS, 1 μg/mL puromycin.
(§3) Compounds were reconstituted in DMSO at 10 mM. Control agonist CX3CL1 was from Peprotech (Cat #300-31).
(§4) Calcium assay: Cells expressing the CX3CR1 receptor were transiently transfected with the chimeric G protein Gαqi5 and seeded in 384-well plates at appropriate densities and cultured overnight. Calcium assays were conducted according to the manufacturer's protocols. The calcium dye loading buffer was added to the cells and incubated for one hour at 37° C. Calcium flux was monitored for 90 seconds with compound injected into the wells at 20th second. In antagonist mode, carrier or compounds were preincubated with the cells for 30 minutes before calcium flux measurement with the control agonist at EC80 concentration (0.04 μM).
(§5) Data analysis: Calcium assay results were expressed as “RFU” and “% Increase in RFU” (FIG. 17). Data were represented in Mean±SEM. Dose-response curves were fitted using “Sigmoidal dose-response (variable slope)” function in Prism 4 without constraint. EC50, EC80 and IC50 values were derived from “% Increase in RFU”.

The target in experiment [3] is T1, CX3CR1. Nature of the experiment: Calcium mobilization (Ca2+) assay, antagonist mode (CX3CL1 at EC80), HEK293T cells stably expressing human CX3CR1. The settings on record: for % Increase in RFU / RFU: antagonist mode. Also noted: Expression vector containing full-length human CX3CR1 cDNA; host or cells: HEK293T. Here is the method:
as §2, §3, §4, §5

The test system of the next experiment is p-ERK1/2. Nature of the experiment: p-ERK1/2 inhibition by Western blot analysis. Here is the method: as §1
Setting [4] is: agonist mode, Log [Compounds] M −4.5, listed as JMS-16.
[5] abbreviates: agonist mode, Log [Compounds] M −4.8, listed as JMS-16.
Where [6] appears, read: agonist mode, Log [Compounds] M −5.1, listed as JMS-16.
[7] abbreviates: agonist mode, Log [Compounds] M −5.4, listed as JMS-16.
Where [8] appears, read: agonist mode, Log [Compounds] M −5.7, listed as JMS-16.
The mark [9] stands for this setting: agonist mode, Log [Compounds] M −6.0, listed as JMS-16.
[10] abbreviates: agonist mode, Log [Compounds] M −6.3, listed as JMS-16.
Where [11] appears, read: agonist mode, Log [Compounds] M −6.6, listed as JMS-16.
Where [12] appears, read: CX3CL1 at EC80 (0.04 μM), Log [Compounds] M −4.5, listed as JMS-16.
Setting [13] is: CX3CL1 at EC80 (0.04 μM), Log [Compounds] M −4.8, listed as JMS-16.
[14] abbreviates: CX3CL1 at EC80 (0.04 μM), Log [Compounds] M −5.1, listed as JMS-16.
The mark [15] stands for this setting: CX3CL1 at EC80 (0.04 μM), Log [Compounds] M −5.4, listed as JMS-16.
[16] abbreviates: CX3CL1 at EC80 (0.04 μM), Log [Compounds] M −5.7, listed as JMS-16.
Where [17] appears, read: CX3CL1 at EC80 (0.04 μM), Log [Compounds] M −6.0, listed as JMS-16.
The mark [18] stands for this setting: CX3CL1 at EC80 (0.04 μM), Log [Compounds] M −6.3, listed as JMS-16.
Where [19] appears, read: CX3CL1 at EC80 (0.04 μM), Log [Compounds] M −6.6, listed as JMS-16.
[20] abbreviates: control agonist, Log [CX3CL1] M −6.7.
[21] abbreviates: control agonist, Log [CX3CL1] M −7.2.
Setting [22] is: control agonist, Log [CX3CL1] M −7.7.
[23] abbreviates: control agonist, Log [CX3CL1] M −8.1.
Setting [24] is: control agonist, Log [CX3CL1] M −8.6.
Setting [25] is: control agonist, Log [CX3CL1] M −9.1.
Setting [26] is: control agonist, Log [CX3CL1] M −9.6.
Setting [27] is: control agonist, Log [CX3CL1] M −10.0.
Where [28] appears, read: EC80 CX3CL1 (0.04 μM) alone, no test compound.

Several values for one entry are separate records, joined by “and”; a condition that tells them apart may be missing. Equal entries are not always repeated. Where two headings read alike, the source gives them in different places.

For the molecule `N#CC(CCCN1CCC(O)(c2ccc(Cl)cc2)CC1)(c1ccccc1)c1ccccc1` [Compound 1, 5-(4-(4-chlorophenyl)-4-hydroxypiperidin-1-yl)-2,2-diphenylpentanenitrile], on CX3CR1 [1], the “CX3CR1 antagonism (in words)” value is given as “weakly potent” and the “inhibition of ERK phosphorylation induced by FKN” value is “inhibits ERK phosphorylation”. Further, at CX3CR1 [1] (listed as compound 1), the “inhibition of ERK phosphorylation induced by FKN” value is on record as “able to inhibit the activation of the MAPK pathway” and the “CX3CR1 antagonism (in words)” value is recorded as “weak CX3CR1 antagonism”.

On to `O=c1c2cccn2c2ccccc2n1CCCN1CCC(O)(c2ccc(Cl)cc2)CC1` [Compound 3, 5-(3-(4-(4-chlorophenyl)-4-hydroxypiperidin-1-yl)propyl)pyrrolo[1,2-a]quinoxalin-4(5H)-one], for which, on CX3CR1 [2], the “stimulation of calcium flux (agonist activity)” value is “agonist activity at the two highest concentrations”. Besides, the “% Increase in RFU” value was 127.9% and 118.0% and 112.4% at CX3CR1 [2] (setting [4]); 80.2% and 85.0% and 84.7% on CX3CR1 [2] (setting [5]); 60.1% and 70.3% and 64.9% on CX3CR1 [2] (setting [6]); 61.1% and 62.3% and 60.5% at CX3CR1 [2] (setting [7]); 57.2% and 61.7% and 60.7% on CX3CR1 [2] (setting [8]); 58.3% and 63.2% and 63.0% at CX3CR1 [2] (setting [9]). Moreover, the “% Increase in RFU” value is 59.0% and 66.2% and 61.9% on CX3CR1 [2] (setting [10]); 61.6% and 62.1% and 60.1% at CX3CR1 [2] (setting [11]); 4.4% and 3.5% and 2.2% on CX3CR1 [3] (setting [12]); 27.9% and 23.6% and 26.7% on CX3CR1 [3] (setting [13]); 45.0% and 38.6% and 38.7% on CX3CR1 [3] (setting [14]); 52.1% and 45.7% and 41.1% at CX3CR1 [3] (setting [15]). Moreover, the “% Increase in RFU” value at CX3CR1 [3] (setting [16]) is 48.9% and 53.1% and 47.0%; on CX3CR1 [3] (setting [17]) it was 58.1% and 54.8% and 53.3%; at CX3CR1 [3] (setting [18]), 46.4% and 46.2% and 42.0%; at CX3CR1 [3] (setting [19]), 45.9% and 41.3% and 44.0%. Also, the RFU on CX3CR1 [2] (setting [4]) is 31.7 RFU and 30.7 RFU and 29.0 RFU; at CX3CR1 [2] (setting [5]), 22.1 RFU and 22.5 RFU and 23.3 RFU; on CX3CR1 [2] (setting [6]), 16.5 RFU and 20.3 RFU and 18.8 RFU; at CX3CR1 [2] (setting [7]) it was 15.5 RFU and 16.9 RFU and 17.1 RFU; at CX3CR1 [2] (setting [8]) it was 15.2 RFU and 17.8 RFU and 17.1 RFU; at CX3CR1 [2] (setting [9]) it was 15.6 RFU and 18.7 RFU and 18.6 RFU. Further, the RFU at CX3CR1 [2] (setting [10]) is 16.0 RFU and 18.2 RFU and 19.5 RFU; at CX3CR1 [2] (setting [11]) it was 15.5 RFU and 18.6 RFU and 17.8 RFU; at CX3CR1 [3] (setting [12]), 1.2 RFU and 0.9 RFU and 0.6 RFU; at CX3CR1 [3] (setting [13]), 9.5 RFU and 7.6 RFU and 8.5 RFU; at CX3CR1 [3] (setting [14]), 15.0 RFU and 13.0 RFU and 12.3 RFU; at CX3CR1 [3] (setting [15]), 15.5 RFU and 14.4 RFU and 13.5 RFU. Further, the RFU on CX3CR1 [3] (setting [16]) is 15.6 RFU and 17.9 RFU and 14.4 RFU; at CX3CR1 [3] (setting [17]), 18.4 RFU and 18.6 RFU and 18.2 RFU; on CX3CR1 [3] (setting [18]), 15.7 RFU and 14.6 RFU and 14.5 RFU; on CX3CR1 [3] (setting [19]), 13.6 RFU and 14.0 RFU and 14.4 RFU. In addition, the IC50 at CX3CR1 [3] (30 min preincubation, CX3CL1 at EC80 (0.04 μM), read-out: IC50, inhibition of CX3CL1-evoked calcium flux) stood at 21 µM. The same molecule came in with an EC50 in the experiment on p-ERK1/2 of around 0.01 µM.

B1: CX3CL1: Control agonist CX3CL1 from Peprotech; chemokine ligand of CX3CR1, also called fractalkine or FKN (protein, listed as Homo sapiens)
chain: MAPISLSWLLRLATFCHLTVLLAGQHHGVTKCNITCSKMTSKIPVALLIHYQQNQASCGKRAIILETRQHRLFCADPKEQWVKDAMQHLDRQAAALTRNGGTFEKQIGEVKPRTTPAAGGMDESVVLEPEATGESSSLEPTPSSQEAQRALGTSPELPTGVTGSSGTRLPPTPKAQDGGPVGTELFRVPPVSTAATWQSSAPHQPGPSLWAEAKTSEAPSTQDPSTQASTASSPAPEENAPSEGQRVWGQGQSPRPENSLEREEMGPVPAHTDAFQDWGPGSMAHVSVVPVSSEGTPSREPVASGSWTPKAEEPIHATMDPQRLGVLITPVPDAQAATRRQAVGLLAFLGLLFCLGVAMFTYQSLQGCPRKMAGEMAEGLRYIPRSCGSNSYVLVPV
On to B1, for which, in the experiment with CX3CR1 [2], the “stimulation of calcium flux (agonist activity)” value is listed as “dose-dependent stimulation of calcium flux”. Besides, the “% Increase in RFU” value was 59.0% and 61.1% with CX3CR1 [2] (setting [20]); 59.9% and 52.7% with CX3CR1 [2] (setting [21]); 42.3% and 35.6% with CX3CR1 [2] (setting [22]); 25.3% and 14.3% in the experiment with CX3CR1 [2] (setting [23]); 9.6% and 11.8% with CX3CR1 [2] (setting [24]); 12.2% and 11.0% with CX3CR1 [2] (setting [25]). Besides, the “% Increase in RFU” value in the experiment with CX3CR1 [2] (setting [26]) is 8.3% and 5.1%; with CX3CR1 [2] (setting [27]), 7.6% and 4.7%; with CX3CR1 [3] (setting [28]), 45.9% and 37.2% and 45.8%. For the same molecule, the RFU is 22.2 RFU and 22.7 RFU in the experiment with CX3CR1 [2] (setting [20]); 21.4 RFU and 20.1 RFU in the experiment with CX3CR1 [2] (setting [21]); 15.5 RFU and 12.4 RFU with CX3CR1 [2] (setting [22]); 9.3 RFU and 4.8 RFU with CX3CR1 [2] (setting [23]); 3.3 RFU and 4.0 RFU with CX3CR1 [2] (setting [24]); 4.4 RFU and 4.1 RFU with CX3CR1 [2] (setting [25]). Also, the RFU with CX3CR1 [2] (setting [26]) is 2.9 RFU and 1.9 RFU; with CX3CR1 [2] (setting [27]), 2.6 RFU and 1.6 RFU; with CX3CR1 [3] (setting [28]) it was 16.0 RFU and 10.9 RFU and 15.8 RFU.
